{"source": "ChEMBL document CHEMBL1201862", "about": "“PubChem BioAssay data set” (2004)", "key": {"[1]": {"experiment": "NIH-3T3 fibroblast cytotoxicity, dose response, cytotoxicity control, cell-based, fluorescence, Alamar Blue, secondary assay (AID 2327);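 further: NIH-3T3 mouse fibroblasts cultured with fluconazole at 8 µg/mL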", "assay_type": "functional"}, "[2]": {"biological_target": "Receptor-type tyrosine-protein kinase FLT3 (Homo sapiens, UniProt P36888)", "assay_type": "functional"}, "[3]": {"biological_target": "Testis-specific serine/threonine-protein kinase 2 (Homo sapiens, UniProt Q96PF2)", "assay_type": "functional"}, "[4]": {"biological_target": "Tyrosine-protein kinase Fer (Homo sapiens, UniProt P16591)", "sequence (P16591 whole entry)": "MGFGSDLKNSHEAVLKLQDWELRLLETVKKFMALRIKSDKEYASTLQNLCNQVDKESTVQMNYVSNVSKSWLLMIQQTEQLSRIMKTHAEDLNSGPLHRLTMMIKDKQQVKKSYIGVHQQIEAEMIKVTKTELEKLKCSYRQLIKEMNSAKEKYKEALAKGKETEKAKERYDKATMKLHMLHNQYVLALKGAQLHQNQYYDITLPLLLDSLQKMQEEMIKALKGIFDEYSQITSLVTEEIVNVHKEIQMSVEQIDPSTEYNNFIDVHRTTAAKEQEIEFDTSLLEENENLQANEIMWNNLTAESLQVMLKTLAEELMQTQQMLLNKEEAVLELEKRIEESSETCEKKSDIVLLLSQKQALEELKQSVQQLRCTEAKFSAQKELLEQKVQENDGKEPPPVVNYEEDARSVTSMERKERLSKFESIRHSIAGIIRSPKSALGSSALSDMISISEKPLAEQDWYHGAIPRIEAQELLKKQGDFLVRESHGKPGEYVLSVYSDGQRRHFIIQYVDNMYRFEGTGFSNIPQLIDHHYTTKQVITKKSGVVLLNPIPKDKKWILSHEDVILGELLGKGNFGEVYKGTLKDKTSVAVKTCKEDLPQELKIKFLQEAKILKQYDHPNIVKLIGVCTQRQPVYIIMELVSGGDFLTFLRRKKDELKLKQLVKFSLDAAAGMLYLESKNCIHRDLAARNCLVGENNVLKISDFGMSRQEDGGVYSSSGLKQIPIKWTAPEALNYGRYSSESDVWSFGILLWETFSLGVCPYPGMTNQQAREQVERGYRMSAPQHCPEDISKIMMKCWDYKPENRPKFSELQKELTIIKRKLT", "assay_type": "functional"}, "[5]": {"biological_target": "Ribosomal protein S6 kinase beta-1 (Homo sapiens, UniProt P23443)", "sequence (P23443 whole entry)": "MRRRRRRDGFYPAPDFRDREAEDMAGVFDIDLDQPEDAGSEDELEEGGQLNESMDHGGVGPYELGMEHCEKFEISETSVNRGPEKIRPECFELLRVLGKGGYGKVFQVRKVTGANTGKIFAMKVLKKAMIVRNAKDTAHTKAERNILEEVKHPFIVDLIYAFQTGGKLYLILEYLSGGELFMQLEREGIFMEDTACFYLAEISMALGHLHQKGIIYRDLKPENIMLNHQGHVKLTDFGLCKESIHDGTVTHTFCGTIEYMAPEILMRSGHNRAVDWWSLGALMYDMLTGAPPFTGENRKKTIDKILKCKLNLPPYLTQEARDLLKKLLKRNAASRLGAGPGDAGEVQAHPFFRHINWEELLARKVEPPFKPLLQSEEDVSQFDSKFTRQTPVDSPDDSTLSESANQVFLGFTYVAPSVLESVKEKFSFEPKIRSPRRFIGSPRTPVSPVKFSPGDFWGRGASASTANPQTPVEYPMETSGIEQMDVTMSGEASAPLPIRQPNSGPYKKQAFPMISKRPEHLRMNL", "assay_type": "functional"}, "[6]": {"biological_target": "Insulin receptor (Homo sapiens, UniProt P06213)", "assay_type": "functional"}, "[7]": {"biological_target": "Serine/threonine-protein kinase 17A (Homo sapiens, UniProt Q9UEE5)", "assay_type": "functional"}, "[8]": {"biological_target": "Proto-oncogene tyrosine-protein kinase ROS (Homo sapiens, UniProt P08922)", "sequence (P08922 whole entry)": "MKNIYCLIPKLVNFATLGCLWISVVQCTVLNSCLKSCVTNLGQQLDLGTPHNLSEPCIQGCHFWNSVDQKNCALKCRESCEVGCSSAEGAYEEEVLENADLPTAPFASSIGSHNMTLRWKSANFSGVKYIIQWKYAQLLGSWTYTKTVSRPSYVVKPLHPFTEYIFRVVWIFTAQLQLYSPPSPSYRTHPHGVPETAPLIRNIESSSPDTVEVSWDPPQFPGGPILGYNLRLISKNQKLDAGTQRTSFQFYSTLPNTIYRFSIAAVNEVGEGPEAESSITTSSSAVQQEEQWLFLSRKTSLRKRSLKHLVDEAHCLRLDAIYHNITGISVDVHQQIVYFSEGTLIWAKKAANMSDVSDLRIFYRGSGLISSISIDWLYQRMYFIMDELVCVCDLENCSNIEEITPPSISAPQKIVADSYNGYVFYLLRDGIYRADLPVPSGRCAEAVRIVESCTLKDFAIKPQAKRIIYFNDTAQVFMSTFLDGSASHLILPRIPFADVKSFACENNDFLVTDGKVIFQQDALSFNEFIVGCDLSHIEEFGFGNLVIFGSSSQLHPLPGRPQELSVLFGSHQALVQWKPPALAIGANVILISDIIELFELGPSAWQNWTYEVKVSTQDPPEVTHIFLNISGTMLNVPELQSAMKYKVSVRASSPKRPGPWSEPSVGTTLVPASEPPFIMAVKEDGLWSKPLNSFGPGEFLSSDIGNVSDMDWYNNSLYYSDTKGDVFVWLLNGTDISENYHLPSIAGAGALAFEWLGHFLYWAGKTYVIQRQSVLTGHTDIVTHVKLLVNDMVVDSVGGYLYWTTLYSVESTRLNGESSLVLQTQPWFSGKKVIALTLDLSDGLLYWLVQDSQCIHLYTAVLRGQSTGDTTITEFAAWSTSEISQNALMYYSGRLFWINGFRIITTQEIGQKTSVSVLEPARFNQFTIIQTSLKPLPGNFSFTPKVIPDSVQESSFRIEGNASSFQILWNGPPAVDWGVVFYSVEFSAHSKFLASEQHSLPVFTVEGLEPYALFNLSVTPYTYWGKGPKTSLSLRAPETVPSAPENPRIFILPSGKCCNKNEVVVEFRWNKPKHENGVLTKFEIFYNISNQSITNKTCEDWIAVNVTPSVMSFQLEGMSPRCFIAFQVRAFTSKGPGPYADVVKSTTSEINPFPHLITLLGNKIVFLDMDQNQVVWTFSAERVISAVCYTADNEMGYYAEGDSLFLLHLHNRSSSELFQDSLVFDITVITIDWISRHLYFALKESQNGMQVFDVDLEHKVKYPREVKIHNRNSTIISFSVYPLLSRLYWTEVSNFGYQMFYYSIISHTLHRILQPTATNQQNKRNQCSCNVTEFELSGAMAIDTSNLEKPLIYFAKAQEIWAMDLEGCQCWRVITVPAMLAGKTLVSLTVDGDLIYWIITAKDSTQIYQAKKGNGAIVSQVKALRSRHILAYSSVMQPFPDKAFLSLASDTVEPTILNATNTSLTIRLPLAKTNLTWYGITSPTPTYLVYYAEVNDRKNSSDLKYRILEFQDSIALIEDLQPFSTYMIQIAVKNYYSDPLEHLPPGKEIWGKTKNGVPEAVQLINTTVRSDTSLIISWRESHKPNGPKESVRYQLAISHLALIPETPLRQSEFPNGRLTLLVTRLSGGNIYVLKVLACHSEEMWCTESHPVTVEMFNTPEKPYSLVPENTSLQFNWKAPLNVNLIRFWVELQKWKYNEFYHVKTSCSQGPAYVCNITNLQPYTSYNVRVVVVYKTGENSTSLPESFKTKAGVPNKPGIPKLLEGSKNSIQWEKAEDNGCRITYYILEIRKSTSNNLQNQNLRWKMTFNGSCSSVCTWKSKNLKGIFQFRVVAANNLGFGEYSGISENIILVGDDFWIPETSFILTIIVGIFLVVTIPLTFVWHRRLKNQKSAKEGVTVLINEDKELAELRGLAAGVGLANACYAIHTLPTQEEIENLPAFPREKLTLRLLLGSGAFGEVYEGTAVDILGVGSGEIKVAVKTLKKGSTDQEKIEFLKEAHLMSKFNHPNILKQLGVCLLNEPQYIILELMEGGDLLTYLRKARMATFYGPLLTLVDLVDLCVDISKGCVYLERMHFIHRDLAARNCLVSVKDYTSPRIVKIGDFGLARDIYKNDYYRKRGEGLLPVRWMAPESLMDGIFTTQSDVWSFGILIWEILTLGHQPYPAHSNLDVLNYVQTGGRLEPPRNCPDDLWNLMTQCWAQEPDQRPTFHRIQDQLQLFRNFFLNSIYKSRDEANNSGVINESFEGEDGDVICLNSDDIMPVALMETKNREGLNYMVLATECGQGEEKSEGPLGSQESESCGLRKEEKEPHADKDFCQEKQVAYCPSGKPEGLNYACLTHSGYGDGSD", "assay_type": "functional"}, "[9]": {"biological_target": "Casein kinase I isoform gamma-1 (Homo sapiens, UniProt Q9HCP0)", "assay_type": "functional"}, "[10]": {"biological_target": "Interleukin-1 receptor-associated kinase 1 (Homo sapiens, UniProt P51617)", "assay_type": "functional"}, "[11]": {"biological_target": "Insulin-like growth factor 1 receptor (Homo sapiens, UniProt P08069)", "experiment": "Navigating the Kinome. Panel member name: IGF1R", "assay_type": "functional"}, "[12]": {"biological_target": "BDNF/NT-3 growth factors receptor (Homo sapiens, UniProt Q16620)", "assay_type": "functional"}, "[13]": {"biological_target": "Serine/threonine-protein kinase pim-1 (Homo sapiens, UniProt P11309)", "assay_type": "functional"}, "[14]": {"biological_target": "Tyrosine-protein kinase Srms (Homo sapiens, UniProt Q9H3Y6)", "assay_type": "functional"}, "[15]": {"biological_target": "Casein kinase II subunit alpha (Homo sapiens, UniProt P68400)", "assay_type": "functional"}, "[16]": {"biological_target": "Maternal embryonic leucine zipper kinase (Homo sapiens, UniProt Q14680)", "assay_type": "functional"}, "[17]": {"biological_target": "MAP kinase-activated protein kinase 2 (Homo sapiens, UniProt P49137)", "assay_type": "functional"}, "[18]": {"biological_target": "Tyrosine-protein kinase ITK/TSK (Homo sapiens, UniProt Q08881)", "assay_type": "functional"}, "[19]": {"biological_target": "Tyrosine-protein kinase receptor TYRO3 (Homo sapiens, UniProt Q06418)", "assay_type": "functional"}, "[20]": {"biological_target": "Testis-specific serine/threonine-protein kinase 1 (Homo sapiens, UniProt Q9BXA7)", "assay_type": "functional"}, "[21]": {"biological_target": "Mitogen-activated protein kinase kinase kinase kinase 4 (Homo sapiens, UniProt O95819)", "assay_type": "functional"}, "[22]": {"biological_target": "Protein kinase C delta type (Homo sapiens, UniProt Q05655)", "sequence (Q05655 whole entry)": "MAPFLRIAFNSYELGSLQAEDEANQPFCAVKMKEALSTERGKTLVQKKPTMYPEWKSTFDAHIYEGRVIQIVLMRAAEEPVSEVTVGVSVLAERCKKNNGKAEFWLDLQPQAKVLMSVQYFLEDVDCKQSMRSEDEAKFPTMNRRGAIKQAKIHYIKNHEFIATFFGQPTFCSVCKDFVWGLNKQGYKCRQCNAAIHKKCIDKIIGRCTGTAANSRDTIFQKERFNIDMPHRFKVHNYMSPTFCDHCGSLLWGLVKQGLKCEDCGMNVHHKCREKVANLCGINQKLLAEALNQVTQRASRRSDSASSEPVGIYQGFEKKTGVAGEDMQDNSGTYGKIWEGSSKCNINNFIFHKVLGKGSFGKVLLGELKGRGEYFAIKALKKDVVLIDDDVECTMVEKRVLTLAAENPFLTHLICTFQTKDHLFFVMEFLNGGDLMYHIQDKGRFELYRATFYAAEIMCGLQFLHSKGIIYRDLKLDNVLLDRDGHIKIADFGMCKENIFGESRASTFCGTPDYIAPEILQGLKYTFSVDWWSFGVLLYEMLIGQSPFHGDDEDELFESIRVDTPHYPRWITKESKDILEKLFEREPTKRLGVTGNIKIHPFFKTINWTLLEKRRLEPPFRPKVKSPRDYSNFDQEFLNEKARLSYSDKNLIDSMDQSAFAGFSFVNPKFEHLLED", "assay_type": "functional"}, "[23]": {"biological_target": "Epidermal growth factor receptor (Homo sapiens, UniProt P00533)"}, "[24]": {"biological_target": "Protein kinase C iota type (Homo sapiens, UniProt P41743)", "sequence (P41743 whole entry)": "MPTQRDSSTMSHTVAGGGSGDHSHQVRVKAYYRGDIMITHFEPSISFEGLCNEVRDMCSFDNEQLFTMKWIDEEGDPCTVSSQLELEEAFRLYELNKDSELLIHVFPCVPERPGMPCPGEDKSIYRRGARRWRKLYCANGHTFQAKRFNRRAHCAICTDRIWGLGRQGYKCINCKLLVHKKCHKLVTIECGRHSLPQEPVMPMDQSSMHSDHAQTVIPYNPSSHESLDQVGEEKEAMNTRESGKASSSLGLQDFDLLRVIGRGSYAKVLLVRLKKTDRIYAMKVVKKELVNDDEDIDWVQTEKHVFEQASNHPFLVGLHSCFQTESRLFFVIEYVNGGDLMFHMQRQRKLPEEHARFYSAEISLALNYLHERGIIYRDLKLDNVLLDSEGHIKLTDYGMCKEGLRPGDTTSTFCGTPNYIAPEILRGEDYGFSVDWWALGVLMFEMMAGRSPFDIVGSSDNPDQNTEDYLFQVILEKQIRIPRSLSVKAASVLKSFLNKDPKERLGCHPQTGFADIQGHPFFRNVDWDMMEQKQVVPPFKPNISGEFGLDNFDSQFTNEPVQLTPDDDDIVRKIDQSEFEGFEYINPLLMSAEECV", "assay_type": "functional"}, "[25]": {"biological_target": "Glycogen synthase kinase-3 beta (Homo sapiens, UniProt P49841)", "assay_type": "functional"}, "[26]": {"biological_target": "Tyrosine-protein kinase BTK (Homo sapiens, UniProt Q06187)", "assay_type": "functional"}}, "note": "The source made the active and inactive calls.", "data": [{"smiles": "COc1ccc(-c2nnc(NC(=O)c3ccc(F)cc3)o2)cc1", "values": [{"measurement": "EC50", "setting": "[1]", "value": "> 150 µM (inactive)"}]}, {"smiles": "CCn1c(-c2nonc2N)nc2cnc(Oc3cccc(NC(=O)c4ccc(OCCN5CCOCC5)cc4)c3)cc21", "note": "[GSK-269962A]", "values": [{"measurement": "Ki", "setting": "[2]", "value": "1.58 µM (active)"}, {"measurement": "Ki", "setting": "[3]", "value": "> 1.58 µM (inactive)"}, {"measurement": "Ki", "setting": "[4]", "value": "> 1.58 µM (inactive)"}, {"measurement": "Ki", "setting": "[5]", "value": "0.00316 µM (active)"}, {"measurement": "Ki", "setting": "[6]", "value": "> 5.01 µM (inactive)"}, {"measurement": "Ki", "setting": "[7]", "value": "0.158 µM (active)"}, {"measurement": "Ki", "setting": "[8]", "value": "> 2 µM (inactive)"}, {"measurement": "Ki", "setting": "[9]", "value": "> 6.31 µM (inactive)"}, {"measurement": "Ki", "setting": "[10]", "value": "> 7.94 µM (inactive)"}, {"measurement": "Ki", "setting": "[11]", "value": "> 2 µM (inactive)"}, {"measurement": "Ki", "setting": "[12]", "value": "> 5.01 µM (inactive)"}, {"measurement": "Ki", "setting": "[13]", "value": "0.316 µM (active)"}, {"measurement": "Ki", "setting": "[14]", "value": "> 1.58 µM (inactive)"}, {"measurement": "Ki", "setting": "[15]", "value": "> 6.31 µM (inactive)"}, {"measurement": "Ki", "setting": "[16]", "value": "> 1.58 µM (inactive)"}, {"measurement": "Ki", "setting": "[17]", "value": "> 7.94 µM (inactive)"}, {"measurement": "Ki", "setting": "[18]", "value": "> 1.58 µM (inactive)"}, {"measurement": "Ki", "setting": "[19]", "value": "> 2 µM (inactive)"}, {"measurement": "Ki", "setting": "[20]", "value": "0.0501 µM (active)"}, {"measurement": "Ki", "setting": "[21]", "value": "> 10 µM (inactive)"}, {"measurement": "Ki", "setting": "[22]", "value": "0.00501 µM (active)"}, {"measurement": "Ki", "setting": "[23]", "value": "> 2 µM (inactive)"}, {"measurement": "Ki", "setting": "[24]", "value": "0.0316 µM (active)"}, {"measurement": "Ki", "setting": "[25]", "value": "0.0631 µM (active)"}, {"measurement": "Ki", "setting": "[26]", "value": "> 1.26 µM (inactive)"}]}]}
